Results published in US10519152B2, “Compounds and their use in treating cancer” (AstraZeneca AB, priority 2017, dated 2019).

Molecular target: T1, Estrogen Receptor (ERα) in MCF-7 human ductal carcinoma breast cell line (Homo sapiens, UniProt P03372)
T1 construct: endogenous in cells; host or cells: MCF-7
T1 sequence (P03372 1-595): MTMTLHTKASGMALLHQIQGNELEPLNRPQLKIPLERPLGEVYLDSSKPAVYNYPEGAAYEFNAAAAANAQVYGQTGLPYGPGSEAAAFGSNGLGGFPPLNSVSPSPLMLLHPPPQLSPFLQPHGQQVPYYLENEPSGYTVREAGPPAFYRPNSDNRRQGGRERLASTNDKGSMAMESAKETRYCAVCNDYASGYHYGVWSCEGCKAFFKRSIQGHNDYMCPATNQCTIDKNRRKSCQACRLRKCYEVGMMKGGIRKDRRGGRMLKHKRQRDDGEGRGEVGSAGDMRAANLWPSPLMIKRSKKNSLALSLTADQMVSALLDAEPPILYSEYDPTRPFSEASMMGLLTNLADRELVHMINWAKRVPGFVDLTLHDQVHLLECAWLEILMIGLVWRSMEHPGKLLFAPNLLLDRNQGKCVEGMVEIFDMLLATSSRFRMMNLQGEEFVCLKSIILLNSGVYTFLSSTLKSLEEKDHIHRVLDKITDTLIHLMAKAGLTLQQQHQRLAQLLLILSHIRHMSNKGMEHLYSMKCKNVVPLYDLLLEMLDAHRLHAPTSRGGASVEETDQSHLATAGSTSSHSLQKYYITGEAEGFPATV
Experiment: MCF-7 ER degradation assay (cell based immuno-fluorescence)
Conditions: MCF-7 cells; for ER degradation ≥ 90% at 0.3 μM: ER degradation by fulvestrant at 0.3 μM is defined as 100%; for DC50: 18-22 hours incubation, 50% reduction of ERα expression, single experiment or average of two or more, read-out: MCF-7 ER degradation IC50
Method in brief: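 MCF-7 human ductal carcinoma breast cells were seeded at 3.75×10^4 cells per mL (40 μL per well) in 384 well plates with phenol red free DMEM containing 2 mM L-Glutamine and 5% (v/v) Charcoal/Dextran treated foetal calf serum. After overnight culture, compounds were acoustically dispensed, incubated 18-22 hours, then cells were formaldehyde-fixed and immunostained for ERα.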

| SMILES | ER degradation ≥ 90% at 0.3 μM | DC50 [nM] |
| --- | --- | --- |
| Cc1ncsc1-c1ccc(CNC(=O)[C@@H]2C[C@@H](O)CN2C(=O)[C@@H](NC(=O)COCCCOCCOc2ccc([C@@H]3c4[nH]c5ccccc5c4C[C@@H](C)N3CC(F)F)nc2)C(C)(C)C)cc1 [Example 26, (2S,4R)-1-((S)-2-(2-(3-(2-((6-((1S,3R)-2-(2,2-Difluoroethyl)-3-methyl-2,3,4,9-tetrahydro-1H-pyrido[3,4-b]indol-1-yl)pyridin-3-yl)oxy)ethoxy)propoxy)acetamido)-3,3-dimethylbutanoyl)-4-hydroxy-N-(4-(4-methylthiazol-5-yl)benzyl)pyrrolidine-2-carboxamide] | • | 7.5 |
| Cc1ncsc1-c1ccc(CNC(=O)[C@@H]2C[C@@H](O)CN2C(=O)[C@@H](NC(=O)COCCCCCNCCOc2cc(F)c([C@@H]3c4[nH]c5ccccc5c4C[C@@H](C)N3CC(C)(C)F)c(F)c2)C(C)(C)C)cc1 [Example 48, (2S,4R)-1-((S)-2-(2-((5-((2-(3,5-difluoro-4-((1R,3R)-2-(2-fluoro-2-methylpropyl)-3-methyl-2,3,4,9-tetrahydro-1H-pyrido[3,4-b]indol-1-yl)phenoxy)ethyl)amino)pentyl)oxy)acetamido)-3,3-dimethylbutanoyl)-4-hydroxy-N-(4-(4-methylthiazol-5-yl)benzyl)pyrrolidine-2-carboxamide] | • | 1.8 |
| Cc1ncsc1-c1ccc(CNC(=O)[C@@H]2C[C@@H](O)CN2C(=O)[C@@H](NC(=O)COCCOCCCCCOc2cnc([C@@H]3c4[nH]c5ccccc5c4C[C@@H](C)N3CC(F)(F)F)c(F)c2)C(C)(C)C)cc1 [Example 165, (2S,4R)-1-((S)-2-(2-(2-((5-((5-Fluoro-6-((1S,3R)-3-methyl-2-(2,2,2-trifluoroethyl)-2,3,4,9-tetrahydro-1H-pyrido[3,4-b]indol-1-yl)pyridin-3-yl)oxy)pentyl)oxy)ethoxy)acetamido)-3,3-dimethylbutanoyl)-4-hydroxy-N-(4-(4-methylthiazol-5-yl)benzyl)pyrrolidine-2-carboxamide] | •• | 4.4 |
| Cc1ncsc1-c1ccc([C@H](C)NC(=O)[C@@H]2C[C@@H](O)CN2C(=O)[C@@H](NC(=O)COCCOCCCCOc2cc(F)c([C@@H]3c4[nH]c5ccccc5c4C[C@@H](C)N3CC(C)(C)F)c(F)c2)C(C)(C)C)cc1 [Example 153, (2S,4R)-1-((S)-2-(2-(2-(4-(3,5-Difluoro-4-((1R,3R)-2-(2-fluoro-2-methylpropyl)-3-methyl-2,3,4,9-tetrahydro-1H-pyrido[3,4-b]indol-1-yl)phenoxy)butoxy)ethoxy)acetamido)-3,3-dimethylbutanoyl)-4-hydroxy-N—((S)-1-(4-(4-methylthiazol-5-yl)phenyl)ethyl)pyrrolidine-2-carboxamide] | •• | 0.4 |
| Cc1ncsc1-c1ccc(CNC(=O)[C@@H]2C[C@@H](O)CN2C(=O)[C@@H](NC(=O)COCCCCCOc2ccc([C@@H]3c4[nH]c5ccccc5c4C[C@@H](C)N3CC(F)F)nc2)C(C)(C)C)cc1 [Example 17, (2S,4R)-1-((S)-2-(2-((5-((6-((1S,3R)-2-(2,2-Difluoroethyl)-3-methyl-2,3,4,9-tetrahydro-1H-pyrido[3,4-b]indol-1-yl)pyridin-3-yl)oxy)pentyl)oxy)acetamido)-3,3-dimethylbutanoyl)-4-hydroxy-N-(4-(4-methylthiazol-5-yl)benzyl)pyrrolidine-2-carboxamide] | • | 41 |
| Cc1ncsc1-c1ccc(CNC(=O)[C@@H]2C[C@@H](O)CN2C(=O)[C@@H](NC(=O)COc2cccc(COc3cc(F)c([C@@H]4c5[nH]c6ccccc6c5C[C@@H](C)N4CC(C)(C)F)c(F)c3)c2)C(C)(C)C)cc1 [Example 20, (2S,4R)-1-((S)-2-(2-(3-((3,5-difluoro-4-((1R,3R)-2-(2-fluoro-2-methylpropyl)-3-methyl-2,3,4,9-tetrahydro-1H-pyrido[3,4-b]indol-1-yl)phenoxy)methyl)phenoxy)acetamido)-3,3-dimethylbutanoyl)-4-hydroxy-N-(4-(4-methylthiazol-5-yl)benzyl)pyrrolidine-2-carboxamide] | • | 1.7 |
| Cc1ncsc1-c1ccc(CNC(=O)[C@@H]2C[C@@H](O)CN2C(=O)[C@@H](NC(=O)CNCc2ccc(COc3cc(F)c([C@@H]4c5[nH]c6ccccc6c5C[C@@H](C)N4CC(C)(C)F)c(F)c3)nc2)C(C)(C)C)cc1 [Example 146] | • | 0.6 |
| Cc1ncsc1-c1ccc(CNC(=O)[C@@H]2C[C@@H](O)CN2C(=O)[C@@H](NC(=O)C(F)(F)OCCCCCCOc2cc(F)c([C@@H]3c4[nH]c5ccccc5c4C[C@@H](C)N3CC(C)(C)F)c(F)c2)C(C)(C)C)cc1 [Example 116, (2S,4R)-1-((S)-2-(2-((6-(3,5-Difluoro-4-((1R,3R)-2-(2-fluoro-2-methylpropyl)-3-methyl-2,3,4,9-tetrahydro-1H-pyrido[3,4-b]indol-1-yl)phenoxy)hexyl)oxy)-2,2-difluoroacetamido)-3,3-dimethylbutanoyl)-4-hydroxy-N-(4-(4-methylthiazol-5-yl)benzyl)pyrrolidine-2-carboxamide] | • | 5.3 |
| Cc1ncsc1-c1ccc(CNC(=O)[C@@H]2C[C@@H](O)CN2C(=O)[C@@H](NC(=O)COCCCOCCCCOc2cc(F)c([C@@H]3c4[nH]c5ccccc5c4C[C@@H](C)N3CC(C)(C)F)c(F)c2)C(C)(C)C)cc1 [Example 129, (2S,4R)-1-((S)-2-(2-(3-(4-(3,5-Difluoro-4-((1R,3R)-2-(2-fluoro-2-methylpropyl)-3-methyl-2,3,4,9-tetrahydro-1H-pyrido[3,4-b]indol-1-yl)phenoxy)butoxy)propoxy)acetamido)-3,3-dimethylbutanoyl)-4-hydroxy-N-(4-(4-methylthiazol-5-yl)benzyl)pyrrolidine-2-carboxamide] | •• | 0.8 |
| Cc1ncsc1-c1ccc([C@H](C)NC(=O)[C@@H]2C[C@@H](O)CN2C(=O)[C@@H](NC(=O)COCCCOCCCOc2cc(F)c([C@@H]3c4[nH]c5ccccc5c4C[C@@H](C)N3CC(C)(C)F)c(F)c2)C(C)(C)C)cc1 [Example 152, (2S,4R)-1-((S)-2-(2-(3-(3-(3,5-Difluoro-4-((1R,3R)-2-(2-fluoro-2-methylpropyl)-3-methyl-2,3,4,9-tetrahydro-1H-pyrido[3,4-b]indol-1-yl)phenoxy)propoxy)propoxy)acetamido)-3,3-dimethylbutanoyl)-4-hydroxy-N—((S)-1-(4-(4-methylthiazol-5-yl)phenyl)ethyl)pyrrolidine-2-carboxamide] | •• | 0.8 |
| Cc1ncsc1-c1ccc(CNC(=O)[C@@H]2C[C@@H](O)CN2C(=O)[C@@H](NC(=O)COCCc2ccc(COc3cc(F)c([C@@H]4c5[nH]c6ccccc6c5C[C@@H](C)N4CC(C)(C)F)c(F)c3)cc2)C(C)(C)C)cc1 [Example 53, (2S,4R)-1-((S)-2-(2-(4-((3,5-difluoro-4-((1R,3R)-2-(2-fluoro-2-methylpropyl)-3-methyl-2,3,4,9-tetrahydro-1H-pyrido[3,4-b]indol-1-yl)phenoxy)methyl)phenethoxy)acetamido)-3,3-dimethylbutanoyl)-4-hydroxy-N-(4-(4-methylthiazol-5-yl)benzyl)pyrrolidine-2-carboxamide] | • | 3.5 |
| Cc1ncsc1-c1ccc(CNC(=O)[C@@H]2C[C@@H](O)CN2C(=O)[C@@H](NC(=O)CCCCCCCOCCOc2cc(F)c([C@@H]3c4[nH]c5ccccc5c4C[C@@H](C)N3CC(C)(C)F)c(F)c2)C(C)(C)C)cc1 [Example 111, (2S,4R)-1-((S)-2-(8-(2-(3,5-Difluoro-4-((1R,3R)-2-(2-fluoro-2-methylpropyl)-3-methyl-2,3,4,9-tetrahydro-1H-pyrido[3,4-b]indol-1-yl)phenoxy)ethoxy)octanamido)-3,3-dimethylbutanoyl)-4-hydroxy-N-(4-(4-methylthiazol-5-yl)benzyl)pyrrolidine-2-carboxamide] | • | 0.8 |
| Cc1ncsc1-c1ccc(CNC(=O)[C@@H]2C[C@@H](O)CN2C(=O)[C@@H](NC(=O)COCCCCOc2cc(F)c([C@@H]3c4[nH]c5ccccc5c4C[C@@H](C)N3CC(C)(C)F)c(F)c2)C(C)(C)C)cc1 [Example 14, (2S,4R)-1-((S)-2-(2-(4-(3,5-Difluoro-4-((1R,3R)-2-(2-fluoro-2-methylpropyl)-3-methyl-2,3,4,9-tetrahydro-1H-pyrido[3,4-b]indol-1-yl)phenoxy)butoxy)acetamido)-3,3-dimethylbutanoyl)-4-hydroxy-N-(4-(4-methylthiazol-5-yl)benzyl)pyrrolidine-2-carboxamide] | • | 1.4 |
